Data: patent US20080318949A1, “Pyrazolopyrimidinone Derivatives, Their Preparation And Their Use” (Topharman Shanghai Co., Ltd, priority 2005, published 2008)

Assays:
PDE6 from bovine retina = target: T1, PDE6 from bovine retina (Bos taurus, UniProt P11541+P23439); test: PDE6 inhibitory activity test (scintillation proximity assay); type: biochemical; details: for IC50: PDE6 from bovine retina; for PDE6 IC50/PDE5 IC50: selectivity of PDE5 versus PDE6
T1 construct: the PDE6 was isolated form bovine retinas; from tissue; host or cells: bovine retina
T1 sequence (P11541 2-856 limits assumed): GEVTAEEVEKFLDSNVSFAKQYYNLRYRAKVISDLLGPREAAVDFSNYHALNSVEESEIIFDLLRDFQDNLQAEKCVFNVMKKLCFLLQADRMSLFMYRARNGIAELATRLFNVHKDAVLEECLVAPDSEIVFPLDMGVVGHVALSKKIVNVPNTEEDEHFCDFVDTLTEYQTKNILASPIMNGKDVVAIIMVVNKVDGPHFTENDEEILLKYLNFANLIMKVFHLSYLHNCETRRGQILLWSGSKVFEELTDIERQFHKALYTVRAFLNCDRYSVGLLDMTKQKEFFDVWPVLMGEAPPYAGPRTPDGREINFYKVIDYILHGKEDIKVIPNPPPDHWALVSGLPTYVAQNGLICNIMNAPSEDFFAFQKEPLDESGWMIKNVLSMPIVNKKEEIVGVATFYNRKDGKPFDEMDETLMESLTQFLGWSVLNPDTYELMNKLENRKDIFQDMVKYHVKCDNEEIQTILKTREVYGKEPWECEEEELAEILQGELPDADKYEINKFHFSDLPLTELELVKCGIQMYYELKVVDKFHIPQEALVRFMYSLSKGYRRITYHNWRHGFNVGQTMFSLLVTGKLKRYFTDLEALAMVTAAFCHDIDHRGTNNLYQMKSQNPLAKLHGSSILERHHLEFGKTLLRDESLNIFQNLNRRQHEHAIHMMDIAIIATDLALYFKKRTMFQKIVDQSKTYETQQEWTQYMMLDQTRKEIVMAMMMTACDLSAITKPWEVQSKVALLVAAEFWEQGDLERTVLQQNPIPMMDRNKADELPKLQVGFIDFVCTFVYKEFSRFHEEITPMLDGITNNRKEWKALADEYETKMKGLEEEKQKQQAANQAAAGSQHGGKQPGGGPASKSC
T1 sequence (P23439 2-850 limits assumed): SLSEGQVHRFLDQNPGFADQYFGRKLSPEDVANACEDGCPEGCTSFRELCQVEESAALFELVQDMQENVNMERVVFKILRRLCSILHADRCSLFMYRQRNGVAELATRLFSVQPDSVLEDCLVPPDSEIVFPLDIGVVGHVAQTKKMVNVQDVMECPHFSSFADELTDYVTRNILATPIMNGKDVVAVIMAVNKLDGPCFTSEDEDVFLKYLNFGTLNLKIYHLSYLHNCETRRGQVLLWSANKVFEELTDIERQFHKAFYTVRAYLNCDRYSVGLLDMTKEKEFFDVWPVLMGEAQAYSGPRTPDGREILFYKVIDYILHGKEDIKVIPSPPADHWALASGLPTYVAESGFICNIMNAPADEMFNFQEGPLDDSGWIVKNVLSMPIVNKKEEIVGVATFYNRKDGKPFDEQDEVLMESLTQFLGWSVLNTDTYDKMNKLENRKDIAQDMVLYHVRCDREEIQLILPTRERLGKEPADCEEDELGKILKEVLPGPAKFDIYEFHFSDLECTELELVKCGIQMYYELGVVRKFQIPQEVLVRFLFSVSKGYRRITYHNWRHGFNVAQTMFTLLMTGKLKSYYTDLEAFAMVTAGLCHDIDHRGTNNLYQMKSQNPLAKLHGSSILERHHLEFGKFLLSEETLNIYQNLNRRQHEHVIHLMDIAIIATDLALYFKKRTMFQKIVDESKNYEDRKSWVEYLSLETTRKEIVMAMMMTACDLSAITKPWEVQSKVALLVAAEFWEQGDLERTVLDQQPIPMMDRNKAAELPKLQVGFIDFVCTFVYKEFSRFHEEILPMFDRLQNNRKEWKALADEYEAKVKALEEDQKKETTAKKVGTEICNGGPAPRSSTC
Excerpt: (§1) The PDE5 and PDE3 were isolated form human platelets, while the PDE6 was isolated form bovine retinas. The enzyme inhibitory activity test conducted immediately after the enzymes had been isolated, using a scintillation proximity assay for the direct detection of AMP/GMP by the TRKQ7100 and TRKQ7090 kit. In summary, the effect of PDE inhibitors was investigated by assaying a fixed amount of enzyme in the presence of varying inhibitor concentrations and low substrate. The final assay volume was made up to 100 μl with 10 μl assay buffer (50 mM Tris/HCl PH 7.5, 8.3 mM MgCl2, 1.7 mM EGTA), and water. Reactions were initiated with enzyme, incubate for 30 minutes at 30° C. and terminated with 50 μl yttrium silicate SPA beads suspension containing zinc sulphate. Shook for 20 minutes and settled for 30 minutes in the dark, then counted on a BECKMAN LS6500 MULTI-PURPOSE SCINTILLATION COUNTER. The IC50 value for the compounds according the present invention was calculated according the counts.

male KM mouse = test: Acute oral toxicity test; type: in vivo; details: single oral dose of 3 g/kg, 10 or 11 mice per group
Description: In this test male KM mouse weighting 18-22 g were used, and 10 or 11 mouse were assigned randomly to each group. […] The animals were fasted for 12 hours before the administration.

[1] = target: T2, PDE5 from human platelets (Homo sapiens, UniProt O76074); test: PDE5 inhibitory activity test (scintillation proximity assay); type: biochemical
T2 construct: from tissue; host or cells: human platelets
Excerpt: as §1
According to the above-mentioned method, the inhibitory activities of some compounds of formula IA and IB according to the invention against PDE5 from human platelets were determined.

rat corpora cavernosa = test: Pharmacodynamic test: intracavernous pressure on electric stimulation of the cavernous nerve; type: in vivo; details: anesthetized male SD rats, 5 mg/kg orally, ratio of ICP to MBp
Description: The test was carried out based on the methods reported (International Journal of Impotence Research 2002, 14, 251 and The Journal of Urology 1992, 147, 1124). After fasted for 12 hours, 4 male SD rats were randomized into each group. After anesthetizing the rats with sodium pentobarbital (50 mg/kg, i.p.), the penile skin was incised and the prepuce was degloved to expose completely the corpora cavernosa (CC). A needle linked to an electrophysiology instrument was inserted into the CC on the right side in order to measure the intracavernous pressure (ICP). The right carotid artery was cannulated in a similar manner to the polyethylene tube in order to monitor the mean blood pressure (MBp) continuously. […] Electric stimulation was performed at 2 Hz, for 60 s with a pulse duration of 5 ms and 3V using a stimulator. The compounds were administrated orally (5 mg/kg). The change of the ICP and MBp were monitored continuously before and after the administration. The effect of the compounds on the erection induced by electric stimulation was evaluated by the ratio of ICP to MBp. The parameter (ICP/MBp) was used to estimate the influence of the compounds to the rat corpora cavernosa. […] The statistical significance of the differences between groups was calculated using Duncan's multiple comparison.

PDE3 = target: T3, PDE3 (Homo sapiens, UniProt Q14432); test: PDE3 inhibitory activity test (scintillation proximity assay); type: biochemical; details: PDE3 isolated from human platelets
T3 construct: from tissue; host or cells: human platelets
T3 sequence (Q14432 whole entry): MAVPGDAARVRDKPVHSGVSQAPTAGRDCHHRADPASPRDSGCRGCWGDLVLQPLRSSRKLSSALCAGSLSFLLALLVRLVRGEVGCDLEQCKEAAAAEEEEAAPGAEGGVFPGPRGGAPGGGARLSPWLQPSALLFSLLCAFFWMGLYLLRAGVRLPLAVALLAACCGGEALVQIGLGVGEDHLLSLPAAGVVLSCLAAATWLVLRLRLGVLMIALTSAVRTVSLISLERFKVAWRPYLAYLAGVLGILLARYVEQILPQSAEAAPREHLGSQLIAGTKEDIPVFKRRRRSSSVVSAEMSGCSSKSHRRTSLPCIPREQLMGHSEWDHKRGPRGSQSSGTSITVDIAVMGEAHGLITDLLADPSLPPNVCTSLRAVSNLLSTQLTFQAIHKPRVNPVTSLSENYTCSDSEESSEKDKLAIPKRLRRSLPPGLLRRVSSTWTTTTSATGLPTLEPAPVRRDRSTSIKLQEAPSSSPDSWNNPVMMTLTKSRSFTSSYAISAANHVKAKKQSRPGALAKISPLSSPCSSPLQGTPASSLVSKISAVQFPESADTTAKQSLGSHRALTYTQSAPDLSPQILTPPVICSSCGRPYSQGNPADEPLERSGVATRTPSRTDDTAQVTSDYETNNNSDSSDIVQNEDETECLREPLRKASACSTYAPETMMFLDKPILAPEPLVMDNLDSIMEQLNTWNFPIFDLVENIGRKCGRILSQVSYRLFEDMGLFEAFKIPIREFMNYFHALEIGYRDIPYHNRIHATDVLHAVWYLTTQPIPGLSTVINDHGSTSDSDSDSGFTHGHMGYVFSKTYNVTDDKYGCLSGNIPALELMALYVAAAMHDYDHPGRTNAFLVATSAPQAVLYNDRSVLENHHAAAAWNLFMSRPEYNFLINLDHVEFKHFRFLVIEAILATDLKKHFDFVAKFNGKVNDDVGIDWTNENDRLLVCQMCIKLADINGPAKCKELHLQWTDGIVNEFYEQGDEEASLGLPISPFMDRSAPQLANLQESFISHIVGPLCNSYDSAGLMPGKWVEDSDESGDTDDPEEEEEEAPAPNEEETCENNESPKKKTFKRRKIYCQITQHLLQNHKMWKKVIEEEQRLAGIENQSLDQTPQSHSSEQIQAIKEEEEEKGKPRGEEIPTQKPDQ
Excerpt: as §1
PDE3 is a PDE isozyme distributed mainly in heart, so the inhibiting of PDE3 may lead to side effects associated with heart. Accordingly, the inhibitory activities of some example compounds according to the invention against PDE3 were determined.

[2] = PDE5 in the PDE6 selectivity table

SMILES | IC50 (PDE6 from bovine retina) | PDE6 IC50/PDE5 IC50 (PDE6 from bovine retina) | Number of death (male KM mouse) | mortality rate (male KM mouse) | IC50 ([1]; PDE5 from human platelets) | IC50 [1, 2] | ICP/BP (rat corpora cavernosa) | IC50 (PDE3)
CCCOc1ccc(S(=O)(=O)N(CCCO)CCCOC(C)=O)cc1-c1nc2c(CCC)nn(C)c2c(=O)[nH]1 [Example 92, 1-methyl-5-{2-propoxy-5-[[1-(3-acetoxypropyl)-1-(3-hydroxypropyl)]amidosulfonyl]phenyl}-3-n-propyl-1,6-dihydro-7H-pyrazolol[4,3-d]pyrimidin-7-one] | 254 nM | 66.0 | 0 | 0% | 3.85 nM | 3.85 nM | 86.4 ± 4.8 | 10500 nM
CCCOc1ccc(S(=O)(=O)N(CCOCC)CCN2CCOCC2)cc1-c1nc2c(CCC)nn(C)c2c(=O)[nH]1 [Example 111, 1-methyl-5-{2-propoxy-5-[[1-(2-ethoxyethyl)-1-(2-morpholin-1-yl)ethyl]amidosulfonyl]phenyl}-3-n-propyl-1,6-dihydro-7H-pyrazolo[4,3-d]pyrimidin-7-one] |  |  | 0 | 0% | 6.83 nM |  | 89.1 ± 6.9 | 8730 nM
CCCOc1ccc(S(=O)(=O)N(CCCOC(C)=O)CCCOC(C)=O)cc1-c1nc2c(CCC)nn(C)c2c(=O)[nH]1 [Example 93, 1-methyl-5-{2-propoxy-5-[bis(3-acetoxypropyl)amidosulfonyl]phenyl}-3-n-propyl-1,6-dihydro-7H-pyrazolo[4,3-d]pyrimidin-7-one] |  |  | 0 | 0% | 3.8 nM |  | 77.2 ± 24.8 | 6000 nM
CCCOc1ccc(S(=O)(=O)N(C)CCOC(C)=O)cc1-c1nc2c(CCC)nn(C)c2c(=O)[nH]1 [Example 33, 1-methyl-5-{2-propoxy-5-[[1-methyl-1-(2-acetoxyethyl)]amidosulfonyl]phenyl}-3-n-propyl-1,6-dihydro-7H-pyrazolo[4,3-d]pyrimidin-7-one] |  |  |  |  |  |  | 72.3 ± 28.6 | 30400 nM
CCCOc1ccc(S(=O)(=O)N(CC)CCN2CCOCC2)cc1-c1nc2c(CC)nn(C)c2c(=O)[nH]1 [Example 54, 1-methyl-5-{2-propoxy-5-[[1-ethyl-1-(2-morpholin-1-yl)ethyl]amidosulfonyl]phenyl}-3-ethyl-1,6-dihydro-7H-pyrazolo[4,3-d]pyrimidin-7-one] | 235 nM | 23.9 | 0 | 0% | 9.81 nM | 9.81 nM | 86.3 ± 6.4 | 16300 nM
CCCOc1ccc(S(=O)(=O)N(CCCOC)CCCOC(C)=O)cc1-c1nc2c(CCC)nn(C)c2c(=O)[nH]1 [Example 118, 1-methyl-5-{2-propoxy-5-[[1-(3-methoxypropyl)-1-(3-acetoxypropyl)]amidosulfonyl]phenyl}-3-n-propyl-1,6-dihydro-7H-pyrazolo[4,3-d]pyrimidin-7-one] | 203 nM | 37.6 | 0 | 0% | 5.41 nM | 5.41 nM | 77.9 ± 2.3 | 20500 nM
CCCOc1ccc(S(=O)(=O)N(CCOC(C)=O)CCN2CCOCC2)cc1-c1nc2c(CCC)nn(C)c2c(=O)[nH]1 [Example 96, 1-methyl-5-{2-propoxy-5-[[1-(2-acetoxyethyl)-1-(2-morpholin-1-yl)ethyl]amidosulfonyl]phenyl}-3-n-propyl-1,6-dihydro-7H-pyrazolo[4,3-d]pyrimidin-7-one] | 244 nM | 57.7 | 0 | 0% | 4.24 nM | 4.24 nM | 81.0 ± 9.5 | 12400 nM
CCCOc1ccc(S(=O)(=O)N(CCN2CCCC2)Cc2cccnc2)cc1-c1nc2c(CCC)nn(C)c2c(=O)[nH]1 [Example 89, 1-methyl-5-{2-propoxy-5-[[1-(3-pyridylmethyl)-1-(2-pyrrolidin-1-yl)ethyl]amidosulfonyl]phenyl}-3-n-propyl-1,6-dihydro-7H-pyrazolo[4,3-d]pyrimidin-7-one] | 215 nM | 27.4 | 5 | 45% | 7.85 nM | 7.85 nM | 70.9 ± 9.8 | 
CCCOc1ccc(S(=O)(=O)N(CC)CCCOC(C)=O)cc1-c1nc2c(CCC)nn(C)c2c(=O)[nH]1 [Example 97, 1-methyl-5-{2-propoxy-5-[[1-ethyl-1-(3-acetoxypropyl)]amidosulfonyl]phenyl}-3-n-propyl-1,6-dihydro-7H-pyrazolo[4,3-d]pyrimidin-7-one] |  |  | 5 | 45% | 13.1 nM |  | 72.0 ± 13.5 | 5120 nM
CCCOc1ccc(S(=O)(=O)N(CCN2CCOCC2)Cc2cccnc2)cc1-c1nc2c(CCC)nn(C)c2c(=O)[nH]1 [Example 62, 1-methyl-5-{2-propoxy-5-[[1-(3-pyridylmethyl)-1-(2-morpholin-1-yl)ethyl]amidosulfonyl]phenyl}-3-n-propyl-1,6-dihydro-7H-pyrazolo[4,3-d]pyrimidin-7-one] |  |  | 6 | 60% |  |  | 69.8 ± 12.2 | 2860 nM
